Here are results for 16 molecules from PubChem BioAssay (NCI).

Test systems include A549 NSCLC; A498 renal; 786-0 renal; NCI-H460 lung; SF-295 CNS; RPMI-8226 leukemia; OVCAR-8 ovarian; EKVX NSCLC; LOX IMVI melanoma; SK-MEL-28 melanoma.
What all share (assay): NCI anticancer screen, dose series, 48 h

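The compound was tested at five concentrations on cells cultured in 96-well plates, with a 48-hour exposure period. GI50 marks 50% less growth. At the TGI there is no net growth.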

In the case of `COC(=O)C1=CC2OC13CC1CCC3(C2=O)C1(C)C` (centres undefined), the TGI was 92.7 µM in the test with A549 NSCLC; 49 µM in the test with A498 renal; 30.7 µM in the test with 786-0 renal; over 100 µM in the test with NCI-H460 lung; 40.5 µM in the test on SF-295 CNS; 38.6 µM in the test with RPMI-8226 leukemia. The TGI with OVCAR-8 ovarian amounted to 23.8 µM.

On to `CCC(=C(c1ccc(OCc2ccccc2)cc1)c1ccc(OCc2ccccc2)cc1)c1ccc(OC)cc1`, for which the TGI in the test on A549 NSCLC, in the test with 786-0 renal, with NCI-H460 lung, in the test on EKVX NSCLC, in the test on LOX IMVI melanoma and in the test with SK-MEL-28 melanoma was over 100 µM throughout. Also, the TGI with SF-295 CNS, with RPMI-8226 leukemia and in the test on OVCAR-8 ovarian was over 100 µM in each case.

As for `COc1ccc(F)cc1C(=O)c1cnc(NC2CCN(S(C)(=O)=O)CC2)nc1N`, the GI50 is 3.14 µM in the test on A549 NSCLC; 3.22 µM in the test with A498 renal; 5.03 µM with 786-0 renal; 0.783 µM in the test with NCI-H460 lung; 2.09 µM in the test with LOX IMVI melanoma; 3.38 µM in the test on SK-MEL-28 melanoma. Also, the GI50 in the test with SF-295 CNS was 1.68 µM; in the test with RPMI-8226 leukemia, 3.27 µM; in the test on OVCAR-8 ovarian it was 3.95 µM. Besides, the TGI in the test on A549 NSCLC was over 23.7 µM; with A498 renal, 8.06 µM; with 786-0 renal, over 25 µM; in the test with NCI-H460 lung it was over 25 µM; with LOX IMVI melanoma, over 25 µM; in the test on SK-MEL-28 melanoma, over 16.4 µM. For the same molecule, the results for the TGI in the test on SF-295 CNS, in the test on RPMI-8226 leukemia and in the test with OVCAR-8 ovarian were over 15.5 µM, 13.1 µM and over 21.6 µM, respectively.

Turning to `COc1cc(C(=O)n2nc(N3CCN(C)CC3)c3cc(N)ccc32)cc(OC)c1OC`, the GI50 was 6.89 µM with A549 NSCLC; 2.82 µM with A498 renal; 4.42 µM with 786-0 renal; 4.34 µM in the test with NCI-H460 lung; 4.23 µM with LOX IMVI melanoma; 14 µM in the test on SK-MEL-28 melanoma. Moreover, the GI50 was 3.54 µM with SF-295 CNS, 4.79 µM in the test with RPMI-8226 leukemia and 4.77 µM in the test with OVCAR-8 ovarian. The TGI in the test with A549 NSCLC is over 100 µM; in the test on A498 renal it was 7.12 µM; in the test on 786-0 renal it was over 100 µM; with NCI-H460 lung it was over 100 µM; with LOX IMVI melanoma, 17.1 µM; with SK-MEL-28 melanoma it was 99.4 µM. In addition, the TGI is 18.2 µM with SF-295 CNS, 34.8 µM with RPMI-8226 leukemia and over 100 µM in the test on OVCAR-8 ovarian.

Regarding `Clc1ccc2nc(CCSCCc3nc4ccc(Cl)cc4[nH]3)[nH]c2c1`, the TGI in the test with A549 NSCLC amounted to 24.9 µM; with 786-0 renal it was 26.3 µM; in the test with NCI-H460 lung it was 31.7 µM; in the test on EKVX NSCLC it was 31.3 µM; in the test with LOX IMVI melanoma, 40.4 µM; in the test with SF-295 CNS, 20.2 µM. The TGI with RPMI-8226 leukemia is 13.5 µM; in the test on OVCAR-8 ovarian, 28 µM.

For `C=C[C@]1(C)C=C2C(=O)[C@@]3(O)OC(=O)[C@@]4(CCCC(C)(C)[C@H]34)[C@@]2(O)CC1`, the GI50 in the test with A549 NSCLC is 2.38 µM; with A498 renal, 1.51 µM; in the test on 786-0 renal it was 1.68 µM; in the test with NCI-H460 lung it was 3.39 µM; in the test with LOX IMVI melanoma, 1.72 µM; in the test on SK-MEL-28 melanoma it was 1.67 µM. Moreover, the GI50 was 4.43 µM in the test with SF-295 CNS, 1.13 µM with RPMI-8226 leukemia and 1.69 µM in the test on OVCAR-8 ovarian. The TGI is 7.26 µM in the test on A549 NSCLC; 3.6 µM in the test with A498 renal; 3.13 µM in the test on 786-0 renal; 13.9 µM in the test with NCI-H460 lung; 3.24 µM with LOX IMVI melanoma; 3.22 µM with SK-MEL-28 melanoma. The TGI stood at 17.8 µM in the test on SF-295 CNS, 8.17 µM in the test with RPMI-8226 leukemia and 5.63 µM with OVCAR-8 ovarian.

In the case of `CCOC(=O)c1c(Cl)c2c(n1Cc1cc(OC)cc(OC)c1)-c1oncc1CCC2`, the GI50 is 0.419 µM in the test on A549 NSCLC; 0.0797 µM in the test on A498 renal; 1.47 µM in the test with 786-0 renal; 0.375 µM in the test with NCI-H460 lung; 0.709 µM in the test with LOX IMVI melanoma; 0.554 µM in the test with SK-MEL-28 melanoma. Also, the GI50 is 0.246 µM with SF-295 CNS, 0.383 µM in the test on RPMI-8226 leukemia and 0.479 µM with OVCAR-8 ovarian. The TGI was over 100 µM in the test on A549 NSCLC; 0.605 µM in the test on A498 renal; over 71.4 µM in the test on 786-0 renal; over 100 µM in the test with NCI-H460 lung; over 100 µM in the test on LOX IMVI melanoma; over 100 µM in the test on SK-MEL-28 melanoma. Further, the TGI was 1.8 µM in the test on SF-295 CNS, over 100 µM with RPMI-8226 leukemia and over 100 µM with OVCAR-8 ovarian.

For the molecule `NC(=O)Oc1cc(OC(N)=O)cc(N(CCCl)CCCl)c1`, the GI50 was 5.13 µM with A549 NSCLC; 12.4 µM in the test on A498 renal; 4.28 µM in the test on 786-0 renal; 0.748 µM with NCI-H460 lung; 2.3 µM in the test with LOX IMVI melanoma; 15.7 µM in the test with SK-MEL-28 melanoma. In addition, the GI50 is 2.89 µM with SF-295 CNS, 3.67 µM in the test on RPMI-8226 leukemia and 5.74 µM in the test with OVCAR-8 ovarian. Also, the TGI was 69 µM in the test on A549 NSCLC; 29.3 µM in the test on A498 renal; 22.8 µM in the test with 786-0 renal; 26.9 µM with NCI-H460 lung; over 100 µM in the test on LOX IMVI melanoma; 65.3 µM with SK-MEL-28 melanoma. For the same molecule, the TGI is over 100 µM with SF-295 CNS, 53.2 µM in the test with RPMI-8226 leukemia and 67.6 µM in the test with OVCAR-8 ovarian.

`O=C(C=Nc1ccccc1C(=O)[O-])c1cccs1.O=C(C=Nc1ccccc1C(=O)[O-])c1cccs1.[Cu+2]`: the TGI with A549 NSCLC, in the test with A498 renal, in the test with 786-0 renal, in the test with NCI-H460 lung, in the test with LOX IMVI melanoma and in the test with SK-MEL-28 melanoma was over 100 µM in each case. For the same molecule, the TGI in the test with SF-295 CNS and in the test on OVCAR-8 ovarian was over 100 µM throughout.

In the case of `Cn1cc(C2=C(c3c4n(c5ccccc35)CCC(CN)CC4)C(=O)NC2=O)c2ccccc21` (centres undefined), the GI50 in the test with A549 NSCLC was 4.14 µM; in the test with A498 renal, 3.96 µM; with 786-0 renal, 4.58 µM; with NCI-H460 lung, 4.21 µM; in the test on LOX IMVI melanoma, 5.26 µM; in the test with SK-MEL-28 melanoma, 4.17 µM. Also, the GI50 in the test on SF-295 CNS is 4.01 µM; in the test with RPMI-8226 leukemia, 4.41 µM; with OVCAR-8 ovarian, 4.82 µM. The TGI in the test on A549 NSCLC came to 9.24 µM; with A498 renal it was 7.55 µM; in the test with 786-0 renal it was 8.55 µM; in the test with NCI-H460 lung it was 8.19 µM; in the test with LOX IMVI melanoma it was 11.4 µM; in the test on SK-MEL-28 melanoma, 8.06 µM. Further, the values for the TGI with SF-295 CNS, in the test on RPMI-8226 leukemia and in the test with OVCAR-8 ovarian were 8.02 µM, 10.8 µM and 9.8 µM, respectively.

`CC1C(=O)N(C)C2(CO)C(=O)O[C@H](C)C12O` (some centres undefined): the TGI with A549 NSCLC, in the test on 786-0 renal, with EKVX NSCLC, in the test with SK-MEL-28 melanoma, with SF-295 CNS and with RPMI-8226 leukemia was over 100 µM throughout. Further, the TGI in the test with OVCAR-8 ovarian was over 100 µM.

For the molecule `CN(C)CC1CCn2c(c(C3=C(c4cn(C)c5ccccc45)C(=O)NC3=O)c3ccccc32)C1` (centres undefined), the GI50 in the test with A549 NSCLC was 4.5 µM; in the test with A498 renal, 4.47 µM; with 786-0 renal it was 4.26 µM; in the test on NCI-H460 lung, 4.57 µM; in the test on LOX IMVI melanoma, 3.86 µM; with SK-MEL-28 melanoma it was 4.59 µM. The GI50 in the test with SF-295 CNS was 4.46 µM; in the test with RPMI-8226 leukemia, 4.89 µM; with OVCAR-8 ovarian, 4.62 µM. Besides, the TGI was determined as 9.06 µM in the test with A549 NSCLC; 9.22 µM in the test on A498 renal; 8.17 µM in the test on 786-0 renal; 8.68 µM in the test on NCI-H460 lung; 7.83 µM in the test with LOX IMVI melanoma; 8.74 µM in the test on SK-MEL-28 melanoma. The TGI with SF-295 CNS was found to be 9.06 µM; in the test on RPMI-8226 leukemia, 11 µM; in the test on OVCAR-8 ovarian, 9.87 µM.

Take `O=C(CC(=O)C(F)(F)F)c1csc2ccccc12`: the TGI with A549 NSCLC, in the test with 786-0 renal, in the test on NCI-H460 lung, in the test on EKVX NSCLC, with LOX IMVI melanoma and with SK-MEL-28 melanoma was over 100 µM in each case. The TGI in the test with SF-295 CNS is 37 µM; in the test with RPMI-8226 leukemia, 91.6 µM; with OVCAR-8 ovarian, 60.2 µM.

Consider `COc1ccc(Nc2ccnc(NCCCNc3ccnc4cc(Cl)ccc34)n2)cc1`, for which the GI50 with A549 NSCLC is 1.55 µM; in the test on A498 renal it was 0.659 µM; in the test with 786-0 renal it was 1.49 µM; in the test with NCI-H460 lung, 1.27 µM; with LOX IMVI melanoma, 0.322 µM; in the test on SK-MEL-28 melanoma, 0.434 µM. Moreover, the GI50 was 1.12 µM in the test on SF-295 CNS, 0.891 µM with RPMI-8226 leukemia and 1.5 µM with OVCAR-8 ovarian. For the same molecule, the TGI amounted to 3.66 µM with A549 NSCLC; 2.54 µM in the test on A498 renal; 2.93 µM in the test with 786-0 renal; 2.85 µM in the test on NCI-H460 lung; 1.27 µM with LOX IMVI melanoma; 1.66 µM in the test on SK-MEL-28 melanoma. Further, the TGI with SF-295 CNS stood at 2.36 µM; in the test with RPMI-8226 leukemia, 3.23 µM; with OVCAR-8 ovarian it was 5.16 µM.

As for `COC(=O)C1=CC2OC1(C)C1(CC1)C2=O` (centres undefined), the TGI with A549 NSCLC is 70 µM; in the test with 786-0 renal, 31.8 µM; in the test on NCI-H460 lung, 48.4 µM; in the test on EKVX NSCLC it was 29 µM; with LOX IMVI melanoma it was 28.5 µM; in the test on SF-295 CNS, 34.4 µM. Moreover, the TGI in the test on RPMI-8226 leukemia turned out to be 30.3 µM; with OVCAR-8 ovarian it was 31.3 µM.

`CCOC(=O)c1cc2ncccc2c2ccccc12`: the TGI in the test with A549 NSCLC, in the test with 786-0 renal, in the test with NCI-H460 lung, in the test with EKVX NSCLC, with LOX IMVI melanoma and in the test with SK-MEL-28 melanoma was over 100 µM in each case. In addition, the TGI in the test with SF-295 CNS, with RPMI-8226 leukemia and with OVCAR-8 ovarian was over 100 µM throughout.
